According to US9771379B2, “N-(2-(2-amino-6-substituted-4,4a,5,6-tetrahydropyrano[3,4-d][1,3]OXAZIN-8a(8H)-yl)-thiazol-4-yl) amides” (Pfizer Inc., priority 2015, dated 2017):

Biological target: BACE1 enzyme (Homo sapiens (Human), UniProt P56817)
Assay: BACE1 Cell-Free Assay
Assay type: biochemical
Conditions: fluorescence polarization, synthetic APP substrate, pH 4.5
Source text: This assay measures the inhibition of the beta-secretase enzyme as it cleaves a non-native peptide.
A synthetic APP substrate that can be cleaved by beta-secretase having N-terminal biotin and made fluorescent by the covalent attachment of Oregon Green at the Cys residue is used to assay beta-secretase activity in the presence or absence of the inhibitory compounds. […] The BACE1 enzyme is affinity purified material from conditioned media of CHO-K1 cells that have been transfected with a soluble BACE construct (BACE1delta™96His). […] Plates are covered and incubated for 3 hours at 37° C. […] The activity of the beta-secretase enzyme is detected by changes in the fluorescence polarization that occur when the substrate is cleaved by the enzyme.

BACE1 enzyme, sequence (P56817 46-457): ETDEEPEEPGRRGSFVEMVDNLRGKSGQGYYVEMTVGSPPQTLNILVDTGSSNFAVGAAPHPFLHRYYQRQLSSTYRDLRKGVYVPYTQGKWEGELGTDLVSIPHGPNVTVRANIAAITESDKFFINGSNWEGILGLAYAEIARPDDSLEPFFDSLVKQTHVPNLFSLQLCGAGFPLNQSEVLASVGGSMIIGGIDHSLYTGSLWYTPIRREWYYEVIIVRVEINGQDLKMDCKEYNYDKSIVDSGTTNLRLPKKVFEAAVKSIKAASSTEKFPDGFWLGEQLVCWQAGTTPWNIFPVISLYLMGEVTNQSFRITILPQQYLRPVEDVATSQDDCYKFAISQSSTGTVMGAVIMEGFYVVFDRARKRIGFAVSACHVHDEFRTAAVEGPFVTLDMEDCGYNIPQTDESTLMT

IC50 [µM] | SMILES
2.26 | NC1=N[C@@]2(c3nc(NC(=O)c4cnc(OC(F)F)cn4)cs3)COC3(CCC3)C[C@H]2CO1 [Example 17, N-(2-((4a′R,8a′R)-2′-amino-4a′,5′-dihydro-4′H-spiro [cyclobutane-1,6′-pyrano [3,4-d][1,3]oxazin]-8a′(8′H)-yl)thiazol-4-yl)-5-(difluoromethoxy)pyrazine-2-carboxamide]
0.561 | NC1=N[C@@]2(c3nc(NC(=O)c4ncc(OC(F)F)cc4Cl)cs3)COC3(CCC3)C[C@H]2CO1 [Example 18, N-(2-((4a′R,8a′R)-2′-amino-4a′,5′-dihydro-4′H-spiro [cyclobutane-1,6′-pyrano[3,4-d][1,3]oxazin]-8a′(8′H)-yl)thiazol-4-yl)-3-chloro-5-(difluoromethoxy) picolinamide]
0.185 | Cc1cc(C#N)cnc1C(=O)Nc1csc([C@]23COC4(CCC4)C[C@H]2COC(N)=N3)n1 [Example 19, N-(2-((4a′R,8a′R)-2′-amino-4a′,5′-dihydro-4′H-spiro [cyclobutane-1,6′-pyrano [3,4-d][1,3]oxazin]-8a′(8′H)-yl)thiazol-4-yl)-5-cyano-3-methylpicolinamide]

Biological target: full length human BACE1 (Homo sapiens (Human), UniProt P56817)
Sequence (P56817 46-501): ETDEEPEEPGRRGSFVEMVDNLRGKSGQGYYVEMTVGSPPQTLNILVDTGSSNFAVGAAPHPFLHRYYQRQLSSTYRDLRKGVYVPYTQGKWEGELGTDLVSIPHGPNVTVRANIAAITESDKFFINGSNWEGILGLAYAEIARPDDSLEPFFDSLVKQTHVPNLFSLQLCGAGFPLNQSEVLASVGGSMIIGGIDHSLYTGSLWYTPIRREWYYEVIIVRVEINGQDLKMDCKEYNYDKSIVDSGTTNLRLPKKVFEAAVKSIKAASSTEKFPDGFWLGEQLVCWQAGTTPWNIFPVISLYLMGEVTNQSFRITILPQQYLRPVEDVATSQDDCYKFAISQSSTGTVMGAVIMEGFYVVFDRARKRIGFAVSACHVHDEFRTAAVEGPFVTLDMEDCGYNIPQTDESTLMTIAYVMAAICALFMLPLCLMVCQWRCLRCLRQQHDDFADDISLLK
Assay: BACE1 Scintillation Proximity Binding Assay (SPA)
Conditions: radioligand displacement, HEK cell membranes, pH 6.0
Protocol: BACE1 Scintillation Proximity Binding Assay (SPA): The BACE1 binding assay measured beta-site amyloid precursor protein-cleaving enzyme (BACE) binding as a decrease in the counts of radioligand bound in a scintillation proximity assay (SPA). […] Full length human BACE1 over-expressed in HEK cells was prepared by Pfizer scientists. Frozen stock cell paste was reacted in 50 mM sodium acetate buffer (pH=6.0) containing 3H-(4aR,6R,8aS)-8a-(2,4-difluorophenyl)-6-(1-methyl-1H-pyrazol-4-yl)-4,4a,5,6,8,8a-hexahydropyrano[3,4-d][1,3]thiazin-2-amine ligand, SPA bead and 60 μM to 600 pM of test compound in an assay volume of 27 uL. The compound plate also contained positive (BACE inhibitor) and negative (DMSO) control wells. The binding was carried out at room temperature for 30 minutes and then the plates were read on a TriLux Microbeta reader to determine the number of counts bound. The raw data was converted to percent effect compared to positive and negative control wells and the compound concentrations and % effect values for tested compounds were plotted to determine the 50% effect (1050) with a four-parameter logistic dose response equation.

IC50 [µM] | SMILES
0.124 | NC1=N[C@@]2(c3nc(NC(=O)c4cnc(OC(F)F)cn4)cs3)CO[C@@H](C(F)(F)F)C[C@H]2CO1 [Example 20, N-{2-[(4aR,6R,8aR)-2-amino-6-(trifluoromethyl)-4,4a,5,6-tetrahydropyrano [3,4-d][1,3]oxazin-8a(8H)-yl]-1,3-thiazol-4-yl}-5-(difluoromethoxy)pyrazine-2-carboxamide]
0.005 | Cc1cc(C#N)cnc1C(=O)Nc1csc([C@]23CO[C@@H](C(F)(F)F)C[C@H]2COC(N)=N3)n1 [Example 21, N-{2-[(4aR,6R,8aR)-2-amino-6-(trifluoromethyl)-4,4a,5,6-tetrahydropyrano [3,4-d][1,3]oxazin-8a(8H)-yl]-1,3-thiazol-4-yl}-5-cyano-3-methylpyridine-2-carboxamide]
0.013 | Cc1nc(OC(F)F)cnc1C(=O)Nc1csc([C@]23CO[C@@H](C(F)(F)F)C[C@H]2COC(N)=N3)n1 [Example 22, N-{2-[(4aR,6R,8aR)-2-amino-6-(trifluoromethyl)-4,4a,5,6-tetrahydropyrano [3,4-d][1,3]oxazin-8a(8H)-yl]-1,3-thiazol-4-yl}-5-(difluoromethoxy)-3-methyl pyrazine-2-carboxamide]
0.162 | COc1cnc(C(=O)Nc2csc([C@]34CO[C@@H](C(F)(F)F)C[C@H]3COC(N)=N4)n2)c(C)n1 [Example 23, N-{2-[(4aR,6R,8aR)-2-amino-6-(trifluoromethyl)-4,4a,5,6-tetrahydropyrano [3,4-d][1,3]oxazin-8a(8H)-yl]-1,3-thiazol-4-yl}-5-methoxy-3-methylpyrazine-2-carboxamide]
